Test results published in US20190002935A1, “BACTERIAL CELLS WITH IMPROVED TOLERANCE TO POLYAMINES” (DANMARKS TEKNISKE UNIVERSITET, priority 2016, published 2019).

Tests used:
E. coli K-12 MG1655 = assay: Growth Profiler growth of K-12 MG1655 in a range of concentrations of other polyamines and amine-containing compounds; settings: for tlag (lag time) / μ (growth rate): Growth Profiler; for screening concentration for which wild-type cells could achieve a growth rate of 0.2-0.3 h^−1: K-12 MG1655, uninhibited growth 0.7-0.9 h^−1 in M9 glucose minimal medium
Description: For data obtained with the Growth Profiler, improved image analysis was additionally implemented to obtain the updated growth parameters. In the Tables below, for values labeled in columns with “(1)”, integrated pixel values (which were later converted to OD600 using a calibration curve) were obtained directly from image analysis capabilities in the Growth Profiler software. In the Tables below, for values labeled in columns with “(2)”, a new algorithm was implemented that automatically detected the pixel integration region in each well in each image by locating the darkest pixels in each well. These values were converted to OD600 with a calibration run in the same manner. The new algorithm provided for an improved accuracy in determining the growth rate, since it eliminated a slowly oscillating frequency that was sometimes observed in the original data, potentially related to the practical setup when scanning the plates.
Additionally, each evolved isolate was tested for cross-tolerance toward other polyamines and amine-containing compounds of biotechnological interest. First, K-12 MG1655 was tested in the Growth Profiler screening format for growth in the presence of a range of concentrations of each compound: 1,3-diaminopropane, 1,5-diaminopentane (cadaverine), spermidine, citrulline, ethylenediamine, carnitine, and ornithine. Variable concentrations of these compounds elicited growth inhibition in E. coli K-12 MG1655 (Table 36). […] The compounds citrulline and ornithine are polyamine-containing amino acids. […] Among the only exceptions were PUTR7-1 in citrulline and PUTR5-1 and PUTR6-2 in ornithine.

[1] = test system: Escherichia coli K-12 MG1655; assay: Screening for tolerance in wild-type cells (Biolector, varying concentrations of putrescine or HMDA); assay type: cell-based; settings: for mean (1) tlag (lag time) / mean (1) μ (growth rate) / mean (2) tlag (lag time) / mean (2) μ (growth rate): K-12 MG1655; for mean (1) tlag (lag time) / mean (1) μ (growth rate): software version (1); for mean (2) tlag (lag time) / mean (2) μ (growth rate): software version (2); for maximum measured concentration at which K-12 MG1655 can grow: M9+1% glucose
Description: Escherichia coli K-12 MG1655 was grown overnight in M9 minimal medium+1% glucose and subcultured the following morning to an initial OD600 of 0.05 in M9+1% glucose. Cells were grown to mid-exponential phase (OD600 0.7-1.0) and were back-diluted with fresh medium to an OD600 of 0.7. […] The culture volume in each well was 1.4 mL.
For data obtained with the Biolector microbioreactor system, self-baselined growth series were imported directly into a custom software platform that automatically detects growth phases and exports growth rates and lag times.

[2] = K-12 MG1655, 25 g/L of the compound
[3] = K-12 MG1655, 30 g/L of the compound
[4] = K-12 MG1655, 40 g/L of the compound
[5] = K-12 MG1655, 45 g/L of the compound
[6] = K-12 MG1655, 50 g/L of the compound
[7] = K-12 MG1655, 60 g/L of the compound
[8] = K-12 MG1655, 75 g/L of the compound
[9] = K-12 MG1655, 5 g/L of the compound
[10] = K-12 MG1655, 10 g/L of the compound
[11] = K-12 MG1655, 20 g/L of the compound

Q: How did the “tlag (lag time)” value (E. coli K-12 MG1655; [2]) turn out when `NC(=O)NCCC[C@H](N)C(=O)O` [citrulline] was run?
A: 6.7 h

Q: What about the “μ (growth rate)” value (E. coli K-12 MG1655; [2]) of the same compound?
A: 0.759 h⁻¹

Q: And the “tlag (lag time)” value (E. coli K-12 MG1655; [3])?
A: 7.0 h

Q: What about the “μ (growth rate)” value (E. coli K-12 MG1655; [3]) of the same compound?
A: 0.702 h⁻¹

Q: What about the “tlag (lag time)” value (E. coli K-12 MG1655; [4]) of the same compound?
A: 7.5 h

Q: What about the “μ (growth rate)” value (E. coli K-12 MG1655; [4]) of the same compound?
A: 0.677 h⁻¹

Q: And the “tlag (lag time)” value (E. coli K-12 MG1655; [5])?
A: 8.6 h

Q: What about the “μ (growth rate)” value (E. coli K-12 MG1655; [5]) of the same compound?
A: 0.508 h⁻¹

Q: And the “tlag (lag time)” value (E. coli K-12 MG1655; [6])?
A: 9.2 h

Q: And the “μ (growth rate)” value (E. coli K-12 MG1655; [6])?
A: 0.538 h⁻¹

Q: What about the “tlag (lag time)” value (E. coli K-12 MG1655; [7]) of the same compound?
A: 10.4 h

Q: What about the “μ (growth rate)” value (E. coli K-12 MG1655; [7]) of the same compound?
A: 0.437 h⁻¹

Q: And the “tlag (lag time)” value (E. coli K-12 MG1655; [8])?
A: 12.4 h

Q: And the “μ (growth rate)” value (E. coli K-12 MG1655; [8])?
A: 0.355 h⁻¹

Q: What about the “screening concentration for which wild-type cells could achieve a growth rate of 0.2-0.3 h^−1” value (“screening concentration” for short) (E. coli K-12 MG1655) of the same compound?
A: 80 g/L

Q: `NCCN` [ethylenediamine, 1,2-diaminoethane] was tested. Which “tlag (lag time)” value (E. coli K-12 MG1655; [9]) did it give?
A: 7.0 h

Q: What about the “μ (growth rate)” value (E. coli K-12 MG1655; [9]) of the same compound?
A: 0.689 h⁻¹

Q: And the “tlag (lag time)” value (E. coli K-12 MG1655; [10])?
A: 8.5 h

Q: And the “μ (growth rate)” value (E. coli K-12 MG1655; [10])?
A: 0.614 h⁻¹

Q: What about the “tlag (lag time)” value (E. coli K-12 MG1655; [11]) of the same compound?
A: 32.9 h

Q: And the “μ (growth rate)” value (E. coli K-12 MG1655; [11])?
A: 0.152 h⁻¹

Q: What about the “μ (growth rate)” value (E. coli K-12 MG1655; [2]) of the same compound?
A: 0.000 h⁻¹

Q: And the “screening concentration” value (E. coli K-12 MG1655)?
A: 18 g/L

Q: What does the source list for `N=C(N)NCCCCN` [Agmatine, 1-amino-4-guanidinobutane]?
A: tlag (lag time) (E. coli K-12 MG1655; [10]): 5.3 h; μ (growth rate) (E. coli K-12 MG1655; [10]): 0.700 h⁻¹; tlag (lag time) (E. coli K-12 MG1655; [11]): 5.6 h; μ (growth rate) (E. coli K-12 MG1655; [11]): 0.630 h⁻¹; tlag (lag time) (E. coli K-12 MG1655; [2]): 6.1 h; μ (growth rate) (E. coli K-12 MG1655; [2]): 0.648 h⁻¹; tlag (lag time) (E. coli K-12 MG1655; [3]): 6.3 h; μ (growth rate) (E. coli K-12 MG1655; [3]): 0.610 h⁻¹; tlag (lag time) (E. coli K-12 MG1655; [4]): 7.0 h; μ (growth rate) (E. coli K-12 MG1655; [4]): 0.632 h⁻¹; tlag (lag time) (E. coli K-12 MG1655; [6]): 7.9 h; μ (growth rate) (E. coli K-12 MG1655; [6]): 0.523 h⁻¹; concentration up to which the compound was non-toxic (E. coli K-12 MG1655; K-12 MG1655, Growth Profiler): up to 50 g/L

Q: For `C[N+](C)(C)CC(O)CC(=O)[O-]` (centres unmarked) [carnitine], which “tlag (lag time)” value (E. coli K-12 MG1655; [9]) is on record?
A: 6.6 h

Q: What about the “μ (growth rate)” value (E. coli K-12 MG1655; [9]) of the same compound?
A: 0.786 h⁻¹

Q: What about the “tlag (lag time)” value (E. coli K-12 MG1655; [10]) of the same compound?
A: 7.5 h

Q: And the “μ (growth rate)” value (E. coli K-12 MG1655; [10])?
A: 0.545 h⁻¹

Q: And the “μ (growth rate)” value (E. coli K-12 MG1655; [11])?
A: 0.000 h⁻¹

Q: What does the source list for `NCCCCCCN` [HMDA, hexane-1,6-diamine]?
A: mean (1) tlag (lag time) ([1]; 10 g/L): 1.3 h; mean (1) μ (growth rate) ([1]; 10 g/L): 0.806 h⁻¹; mean (2) tlag (lag time) ([1]; 10 g/L): 0.8 h; mean (2) μ (growth rate) ([1]; 10 g/L): 0.605 h⁻¹; mean (1) tlag (lag time) ([1]; 20 g/L): 1.4 h; mean (1) μ (growth rate) ([1]; 20 g/L): 0.601 h⁻¹; mean (2) tlag (lag time) ([1]; 20 g/L): 0.3 h; mean (2) μ (growth rate) ([1]; 20 g/L): 0.394 h⁻¹; mean (1) tlag (lag time) ([1]; 30 g/L): 1.7 h; mean (1) μ (growth rate) ([1]; 30 g/L): 0.475 h⁻¹; mean (2) tlag (lag time) ([1]; 30 g/L): 0.0 h; mean (2) μ (growth rate) ([1]; 30 g/L): 0.241 h⁻¹; mean (1) tlag (lag time) ([1]; 40 g/L): 2.6 h; mean (1) μ (growth rate) ([1]; 40 g/L): 0.216 h⁻¹; mean (2) tlag (lag time) ([1]; 40 g/L): 2.3 h; mean (2) μ (growth rate) ([1]; 40 g/L): 0.136 h⁻¹; mean (1) μ (growth rate) ([1]; 50 g/L): 0.000 h⁻¹; mean (2) μ (growth rate) ([1]; 50 g/L): 0.000 h⁻¹; mean (1) μ (growth rate) ([1]; 75 g/L): 0.000 h⁻¹; mean (2) μ (growth rate) ([1]; 75 g/L): 0.000 h⁻¹; mean (1) μ (growth rate) ([1]; 100 g/L): 0.000 h⁻¹; mean (2) μ (growth rate) ([1]; 100 g/L): 0.000 h⁻¹; concentration at which zero/no growth was detected ([1]; K-12 MG1655, M9+1% glucose, Biolector): 50 g/L; maximum measured concentration at which K-12 MG1655 can grow ([1]; Biolector): 40 g/L

Q: `NCCC[C@H](N)C(=O)O` [ornithine] was tested. Which “tlag (lag time)” value (E. coli K-12 MG1655; [9]) did it give?
A: 8.2 h

Q: What about the “μ (growth rate)” value (E. coli K-12 MG1655; [9]) of the same compound?
A: 0.439 h⁻¹

Q: And the “tlag (lag time)” value (E. coli K-12 MG1655; [10])?
A: 17.1 h

Q: What about the “μ (growth rate)” value (E. coli K-12 MG1655; [10]) of the same compound?
A: 0.260 h⁻¹

Q: And the “tlag (lag time)” value (E. coli K-12 MG1655; [11])?
A: 44.2 h

Q: And the “μ (growth rate)” value (E. coli K-12 MG1655; [11])?
A: 0.214 h⁻¹

Q: And the “tlag (lag time)” value (E. coli K-12 MG1655; [2])?
A: 53.2 h

Q: And the “μ (growth rate)” value (E. coli K-12 MG1655; [2])?
A: 0.150 h⁻¹

Q: And the “tlag (lag time)” value (E. coli K-12 MG1655; [3])?
A: 82.6 h

Q: What about the “μ (growth rate)” value (E. coli K-12 MG1655; [3]) of the same compound?
A: 0.076 h⁻¹

Q: And the “μ (growth rate)” value (E. coli K-12 MG1655; [4])?
A: 0.000 h⁻¹

Q: What about the “screening concentration” value (E. coli K-12 MG1655) of the same compound?
A: 10 g/L

Q: `NCCCCN` [putrescine, butane-1,4-diamine] was tested. Which “mean (1) tlag (lag time)” value ([1]; 10 g/L) did it give?
A: 1.4 h

Q: What about the “mean (1) μ (growth rate)” value ([1]; 10 g/L) of the same compound?
A: 0.698 h⁻¹

Q: What about the “mean (2) tlag (lag time)” value ([1]; 10 g/L) of the same compound?
A: 1.0 h

Q: And the “mean (2) μ (growth rate)” value ([1]; 10 g/L)?
A: 0.538 h⁻¹

Q: What about the “mean (1) tlag (lag time)” value ([1]; 20 g/L) of the same compound?
A: 2.2 h

Q: And the “mean (1) μ (growth rate)” value ([1]; 20 g/L)?
A: 0.577 h⁻¹

Q: And the “mean (2) tlag (lag time)” value ([1]; 20 g/L)?
A: 1.5 h

Q: What about the “mean (2) μ (growth rate)” value ([1]; 20 g/L) of the same compound?
A: 0.392 h⁻¹

Q: What about the “mean (1) tlag (lag time)” value ([1]; 30 g/L) of the same compound?
A: 3.4 h

Q: What about the “mean (1) μ (growth rate)” value ([1]; 30 g/L) of the same compound?
A: 0.350 h⁻¹

Q: And the “mean (2) tlag (lag time)” value ([1]; 30 g/L)?
A: 6.2 h

Q: And the “mean (2) μ (growth rate)” value ([1]; 30 g/L)?
A: 0.317 h⁻¹

Q: What about the “mean (1) tlag (lag time)” value ([1]; 40 g/L) of the same compound?
A: 12.3 h

Q: And the “mean (1) μ (growth rate)” value ([1]; 40 g/L)?
A: 0.108 h⁻¹

Q: What about the “mean (2) tlag (lag time)” value ([1]; 40 g/L) of the same compound?
A: 25.8 h

Q: What about the “mean (2) μ (growth rate)” value ([1]; 40 g/L) of the same compound?
A: 0.148 h⁻¹

Q: And the “mean (1) tlag (lag time)” value ([1]; 50 g/L)?
A: 19.8 h

Q: And the “mean (1) μ (growth rate)” value ([1]; 50 g/L)?
A: 0.023 h⁻¹

Q: And the “mean (2) μ (growth rate)” value ([1]; 50 g/L)?
A: 0.000 h⁻¹

Q: What about the “mean (1) μ (growth rate)” value ([1]; 75 g/L) of the same compound?
A: 0.000 h⁻¹

Q: What about the “mean (2) μ (growth rate)” value ([1]; 75 g/L) of the same compound?
A: 0.000 h⁻¹

Q: What about the “mean (1) μ (growth rate)” value ([1]; 100 g/L) of the same compound?
A: 0.000 h⁻¹

Q: What about the “mean (2) μ (growth rate)” value ([1]; 100 g/L) of the same compound?
A: 0.000 h⁻¹

Q: What about the “maximum measured concentration at which K-12 MG1655 can grow” value ([1]; Biolector) of the same compound?
A: 40 g/L

Q: With `NCCCCCN` [cadaverine, pentane-1,5-diamine] as the compound, how does the “screening concentration” value (E. coli K-12 MG1655) read?
A: 35 g/L

Q: How did the “screening concentration” value (E. coli K-12 MG1655) turn out when `NCCCCNCCCN` [spermidine, N-(3-aminopropyl)-1,4-diaminobutane] was run?
A: 40 g/L

Q: `NCCCN` [1,3-diaminopropane, propane-1,3-diamine] was tested. Which “screening concentration” value (E. coli K-12 MG1655) did it give?
A: 35 g/L
